Results from ChEMBL document CHEMBL1158851, “Friedelane triterpenoids from Maytenus macrocarpa” (J Nat Prod, 1998).

Columns and labels:
Assay type in all cases: functional, cell-based
P388 = assay: Cytotoxicity against mouse P388 cells
HT-29 = assay: Cytotoxicity against human HT-29 cells
SK-MEL-28 = assay: Cytotoxicity against human SK-MEL-28 cells
A549 = assay: Cytotoxicity against human A549 cells

Measured: IC50

C[C@H]1C(=O)CC(=O)[C@@H]2[C@]1(C)CC[C@H]1[C@@]2(C)CC[C@@]2(C)[C@@H]3CC(C)(C)CC[C@]3(CO)CC[C@]12C
> 10 µg/mL: P388 | HT-29 | SK-MEL-28 | A549

CC(=O)OC[C@]12CCC(C)(C)C[C@H]1[C@]1(C)CC[C@@]3(C)[C@@H]4C(=O)C=C(OC(C)=O)[C@H](C)[C@@]4(C)CC[C@@H]3[C@@]1(C)CC2
> 10 µg/mL: P388 | HT-29 | SK-MEL-28 | A549
